Literature values as cited in patent US20230116647A1 (Bausch Health Ireland Limited, priority 2020, published 2023).

Assays:
[1] = test system: species of Staphylococcus, Streptococcus, Enterococcus, and Enterobacteriaceae; settings: cited from earlier work
[2] = test system: proteoglycan (PG)-induced ankylosing spondylitis; settings: administered for 4 consecutive weeks; cited from earlier work
Hepatic Encephalopathy = settings: mouse, in vivo; cited from earlier work
[3] = test system: Minimal Hepatic Encephalopathy; settings: cited from earlier work
NASH = settings: after 6 months of therapy; all P<0.05; cited from earlier work
visceral hyperalgesia = settings: rat, in vivo; cited from earlier work

Molecule	in vitro activity against bacteria [1]	inflammatory factors, such as TNF-α, IL-6, IL-17A, and IL-23 [2]	severity of ankylosing spondylitis [2]	microbiota function (endotoxin, deconjugation and formation of secondary bile acids) (Hepatic Encephalopathy)	systemic inflammation (serum IL-1β, IL-6), intestinal barrier, microbiota composition and function (Hepatic Encephalopathy)	responders in whom all alterations of the immune system were normalized ([3]; human, in vivo) [%]	effect on alterations of the immune system in non-responders ([3]; non-responders)	homeostatic model assessment, ALT, AST, γ-glutamyl transferase, endotoxin, toll-like receptor-4, IL-6, TNF-α, CK-18, NAFLD-liver fat score (NASH)	mucosal inflammation, measured by levels of IL-17, IL-6 and TNF-α (visceral hyperalgesia)	overall quantity of bacteria in the ileum (visceral hyperalgesia)	elevation in IL-17, IL-6, or TNF-α (visceral hyperalgesia)	visceral pain (visceral hyperalgesia)
CO[C@H]1/C=C/O[C@@]2(C)Oc3c(C)c(O)c4c(O)c(c5c(nc6cc(C)ccn65)c4c3C2=O)NC(=O)/C(C)=C\C=C\[C@H](C)[C@H](O)[C@@H](C)[C@@H](O)[C@@H](C)[C@H](OC(C)=O)[C@@H]1C [rifaximin, Rifaximin]	active	down-regulation	significantly reduced	favorably impacted	improved	59	normalizes only IL-6, CCL20, and differentiation of T lymphocytes to Th22	significant reduction	decreased	decreased	–	–
neomycin	–	–	–	–	–	–	–	–	–	–	did not prevent	did not decrease
